# According to ChEMBL document CHEMBL1201862, “PubChem BioAssay data set” (2004):
#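 Each compound was tested at five concentrations against cells in 96-well plates for 48 hours. GI50: concentration for 50% inhibition of growth.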 Calls of active or inactive are those of the source. Cut-off read from the data, not from the text of the source: active = GI50 up to about 1.1 µM and inactive = higher.
# Tests used:
# Assay in all cases: NCI tumour cell line growth inhibition, 48 h
# A498 = system: A498
# HT-29 = system: HT-29
# MCF7 = system: MCF7
# SF-295 = system: SF-295
# T47D = system: T47D
# HOP-62 = system: HOP-62
# HCC 2998 = system: HCC 2998
# RXF 393 = system: RXF 393
# K562 = system: K562
# NCI-H23 = system: NCI-H23
# NCI-H522 = system: NCI-H522
# PC-3 = system: PC-3
# OVCAR-5 = system: OVCAR-5
# A549 = system: A549
# OVCAR-8 = system: OVCAR-8
# TK-10 = system: TK-10
# EKVX = system: EKVX
# SR = system: SR
# SF-268 = system: SF-268
# BT-549 = system: BT-549
# 786-0 = system: 786-0
# MDA-MB-231 = system: MDA-MB-231
# MDA-MB-435 = system: MDA-MB-435
# ACHN = system: ACHN
# LOX IMVI = system: LOX IMVI
# HCT-15 = system: HCT-15
# HOP-92 = system: HOP-92
# NCI-H226 = system: NCI-H226
# SNB-19 = system: SNB-19
# SK-OV-3 = system: SK-OV-3
# KM12 = system: KM12
# U-251 = system: U-251
# Hs-578T = system: Hs-578T
# CAKI-1 = system: CAKI-1
# SF-539 = system: SF-539
# SK-MEL-5 = system: SK-MEL-5
# UACC-62 = system: UACC-62
# M14 = system: M14
# MOLT-4 = system: MOLT-4
# SK-MEL-28 = system: SK-MEL-28
# COLO 205 = system: COLO 205
# IGROV-1 = system: IGROV-1
# SN12C = system: SN12C
# RPMI-8226 = system: RPMI-8226
# OVCAR-4 = system: OVCAR-4
# HCT-116 = system: HCT-116
# HL-60 = system: HL-60
# SW-620 = system: SW-620
# Malme-3M = system: Malme-3M
# SNB-75 = system: SNB-75
# NCI/ADR-RES = system: NCI/ADR-RES
# UO-31 = system: UO-31
# DU-145 = system: DU-145
# MDA-N = system: MDA-N
# OVCAR-3 = system: OVCAR-3
# NCI-H460 = system: NCI-H460
# UACC-257 = system: UACC-257
# CCRF-CEM = system: CCRF-CEM
# SK-MEL-2 = system: SK-MEL-2
smiles,measurement,setting,value
CC(=O)OCC1OC(n2c(-c3ccc(C)cc3)cc(-c3ccccc3)c(C#N)c2=S)C(OC(C)=O)C(OC(C)=O)C1OC(C)=O (configuration not stated),GI50,A498,31 µM (inactive)
same,GI50,HT-29,> 100 µM (inactive)
same,GI50,MCF7,> 100 µM (inactive)
same,GI50,SF-295,> 100 µM (inactive)
same,GI50,T47D,> 100 µM (inactive)
same,GI50,HOP-62,> 100 µM (inactive)
same,GI50,HCC 2998,> 100 µM (inactive)
same,GI50,RXF 393,> 100 µM (inactive)
same,GI50,K562,> 100 µM (inactive)
same,GI50,NCI-H23,> 100 µM (inactive)
same,GI50,NCI-H522,> 100 µM (inactive)
same,GI50,PC-3,> 100 µM (inactive)
same,GI50,OVCAR-5,> 100 µM (inactive)
same,GI50,A549,> 100 µM (inactive)
same,GI50,OVCAR-8,> 100 µM (inactive)
same,GI50,TK-10,> 100 µM (inactive)
same,GI50,EKVX,> 100 µM (inactive)
same,GI50,SR,> 100 µM (inactive)
same,GI50,SF-268,> 100 µM (inactive)
same,GI50,BT-549,> 100 µM (inactive)
same,GI50,786-0,> 100 µM (inactive)
same,GI50,MDA-MB-231,> 100 µM (inactive)
same,GI50,MDA-MB-435,> 100 µM (inactive)
same,GI50,ACHN,> 100 µM (inactive)
same,GI50,LOX IMVI,> 100 µM (inactive)
same,GI50,HCT-15,> 100 µM
same,GI50,HOP-92,> 100 µM (inactive)
same,GI50,NCI-H226,> 100 µM (inactive)
same,GI50,SNB-19,> 100 µM (inactive)
same,GI50,SK-OV-3,> 100 µM (inactive)
same,GI50,KM12,> 100 µM (inactive)
same,GI50,U-251,> 100 µM (inactive)
same,GI50,Hs-578T,65.2 µM (inactive)
same,GI50,CAKI-1,> 100 µM (inactive)
same,GI50,SF-539,> 100 µM (inactive)
same,GI50,SK-MEL-5,37.8 µM (inactive)
same,GI50,UACC-62,> 100 µM (inactive)
same,GI50,M14,> 100 µM (inactive)
same,GI50,MOLT-4,> 100 µM (inactive)
same,GI50,SK-MEL-28,> 100 µM (inactive)
same,GI50,COLO 205,> 100 µM (inactive)
same,GI50,IGROV-1,> 100 µM (inactive)
same,GI50,SN12C,> 100 µM (inactive)
same,GI50,RPMI-8226,> 100 µM (inactive)
same,GI50,OVCAR-4,81.1 µM (inactive)
same,GI50,HCT-116,> 100 µM (inactive)
same,GI50,HL-60,> 100 µM (inactive)
same,GI50,SW-620,> 100 µM (inactive)
same,GI50,Malme-3M,> 100 µM (inactive)
same,GI50,SNB-75,32.7 µM (inactive)
same,GI50,NCI/ADR-RES,> 100 µM (inactive)
same,GI50,UO-31,> 100 µM (inactive)
same,GI50,DU-145,> 100 µM (inactive)
same,GI50,MDA-N,> 100 µM (inactive)
same,GI50,OVCAR-3,> 100 µM (inactive)
same,GI50,NCI-H460,> 100 µM (inactive)
COC(=O)c1ccc(Oc2nc3ccc(C(F)(F)F)cc3nc2-c2ccccc2)cc1,GI50,A498,> 100 µM (inactive)
same,GI50,UACC-257,> 100 µM (inactive)
same,GI50,HT-29,> 100 µM (inactive)
same,GI50,MCF7,24.9 µM (inactive)
same,GI50,SF-295,> 100 µM (inactive)
same,GI50,T47D,56.2 µM (inactive)
same,GI50,HOP-62,> 100 µM (inactive)
same,GI50,HCC 2998,> 100 µM (inactive)
same,GI50,RXF 393,74.5 µM (inactive)
same,GI50,K562,60.8 µM (inactive)
same,GI50,NCI-H23,> 100 µM (inactive)
same,GI50,NCI-H522,94.6 µM (inactive)
same,GI50,PC-3,> 100 µM (inactive)
same,GI50,OVCAR-5,> 100 µM (inactive)
same,GI50,A549,> 100 µM (inactive)
same,GI50,OVCAR-8,> 100 µM (inactive)
same,GI50,TK-10,> 100 µM (inactive)
same,GI50,EKVX,55.5 µM (inactive)
same,GI50,SR,92.3 µM (inactive)
same,GI50,SF-268,> 100 µM (inactive)
same,GI50,CCRF-CEM,> 100 µM (inactive)
same,GI50,BT-549,> 100 µM (inactive)
same,GI50,786-0,> 100 µM (inactive)
same,GI50,MDA-MB-231,> 100 µM (inactive)
same,GI50,MDA-MB-435,> 100 µM (inactive)
same,GI50,ACHN,56.9 µM (inactive)
same,GI50,LOX IMVI,> 100 µM (inactive)
same,GI50,HCT-15,> 100 µM
same,GI50,HOP-92,> 100 µM (inactive)
same,GI50,NCI-H226,> 100 µM (inactive)
same,GI50,SK-OV-3,> 100 µM (inactive)
same,GI50,KM12,> 100 µM (inactive)
same,GI50,U-251,> 100 µM (inactive)
same,GI50,Hs-578T,> 100 µM (inactive)
same,GI50,CAKI-1,> 100 µM (inactive)
same,GI50,SF-539,> 100 µM (inactive)
same,GI50,SK-MEL-5,> 100 µM (inactive)
same,GI50,UACC-62,> 100 µM (inactive)
same,GI50,MOLT-4,66.4 µM (inactive)
same,GI50,SK-MEL-28,> 100 µM (inactive)
same,GI50,COLO 205,> 100 µM (inactive)
same,GI50,IGROV-1,> 100 µM (inactive)
same,GI50,SN12C,> 100 µM (inactive)
same,GI50,RPMI-8226,62.8 µM (inactive)
same,GI50,OVCAR-4,> 100 µM (inactive)
same,GI50,HCT-116,> 100 µM (inactive)
same,GI50,HL-60,> 100 µM (inactive)
same,GI50,SW-620,> 100 µM (inactive)
same,GI50,Malme-3M,> 100 µM (inactive)
same,GI50,SNB-75,> 100 µM (inactive)
same,GI50,NCI/ADR-RES,> 100 µM (inactive)
same,GI50,UO-31,> 100 µM (inactive)
same,GI50,DU-145,> 100 µM (inactive)
same,GI50,MDA-N,> 100 µM (inactive)
same,GI50,OVCAR-3,> 100 µM (inactive)
same,GI50,NCI-H460,83.2 µM (inactive)
COCN1C(=O)[C@@H]2CCCN2C(=O)c2ccc(Cl)cc21,GI50,A498,> 100 µM (inactive)
same,GI50,UACC-257,> 100 µM (inactive)
same,GI50,HT-29,> 100 µM (inactive)
same,GI50,MCF7,> 100 µM (inactive)
same,GI50,SF-295,> 100 µM (inactive)
same,GI50,T47D,> 100 µM (inactive)
same,GI50,HOP-62,> 100 µM (inactive)
same,GI50,HCC 2998,> 100 µM (inactive)
same,GI50,RXF 393,> 100 µM (inactive)
same,GI50,K562,> 100 µM (inactive)
same,GI50,NCI-H23,> 100 µM (inactive)
same,GI50,NCI-H522,> 100 µM (inactive)
same,GI50,PC-3,> 100 µM (inactive)
same,GI50,OVCAR-5,> 100 µM (inactive)
same,GI50,A549,> 100 µM (inactive)
same,GI50,OVCAR-8,> 100 µM (inactive)
same,GI50,TK-10,> 100 µM (inactive)
same,GI50,EKVX,> 100 µM (inactive)
same,GI50,SR,> 100 µM (inactive)
same,GI50,SF-268,> 100 µM (inactive)
same,GI50,BT-549,> 100 µM (inactive)
same,GI50,786-0,> 100 µM (inactive)
same,GI50,MDA-MB-231,> 100 µM (inactive)
same,GI50,MDA-MB-435,> 100 µM (inactive)
same,GI50,ACHN,> 100 µM (inactive)
same,GI50,LOX IMVI,> 100 µM (inactive)
same,GI50,HCT-15,> 100 µM
same,GI50,HOP-92,> 100 µM (inactive)
same,GI50,NCI-H226,> 100 µM (inactive)
same,GI50,SNB-19,> 100 µM (inactive)
same,GI50,SK-OV-3,> 100 µM (inactive)
same,GI50,KM12,> 100 µM (inactive)
same,GI50,U-251,> 100 µM (inactive)
same,GI50,Hs-578T,> 100 µM (inactive)
same,GI50,CAKI-1,> 100 µM (inactive)
same,GI50,SK-MEL-2,> 100 µM (inactive)
same,GI50,UACC-62,> 100 µM (inactive)
same,GI50,M14,> 100 µM (inactive)
same,GI50,MOLT-4,> 100 µM (inactive)
same,GI50,SK-MEL-28,> 100 µM (inactive)
same,GI50,COLO 205,> 100 µM (inactive)
same,GI50,IGROV-1,> 100 µM (inactive)
same,GI50,SN12C,> 100 µM (inactive)
same,GI50,RPMI-8226,> 100 µM (inactive)
same,GI50,OVCAR-4,> 100 µM (inactive)
same,GI50,HCT-116,> 100 µM (inactive)
same,GI50,HL-60,> 100 µM (inactive)
same,GI50,SW-620,> 100 µM (inactive)
same,GI50,Malme-3M,> 100 µM (inactive)
same,GI50,SNB-75,> 100 µM (inactive)
same,GI50,NCI/ADR-RES,> 100 µM (inactive)
same,GI50,UO-31,> 100 µM (inactive)
same,GI50,DU-145,> 100 µM (inactive)
same,GI50,MDA-N,> 100 µM (inactive)
same,GI50,NCI-H460,> 100 µM (inactive)
